Test results taken from paper PMC8333425, “Discovery of a dual Ras and ARF6 inhibitor from a GPCR endocytosis screen” (Nature Communications, 2021).

Legend:
Test in all cases: KINOMEscan kinase binding assay
[1] = biological target: T1, 384 kinases from the human genome (Homo sapiens, UniProt P57059); conditions: kinase SIK (Entrez SIK1)
T1 construct: purchased Eurofin/DiscoverX
Method in brief: (§1)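 Competition binding (KINOMEscan) across 384 human kinases with compound at 10 µM. Ligand binding was expressed relative to DMSO (100%) as the average of duplicates from one experiment. S(10) selectivity score was derived.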

[2] = biological target: T2, 384 kinases from the human genome (Homo sapiens, UniProt Q6ZN16); conditions: kinase MAP3K15 (Entrez MAP3K15)
T2 construct: purchased Eurofin/DiscoverX
Method in brief: as §1

[3] = biological target: T3, 384 kinases from the human genome (Homo sapiens, UniProt P41743); conditions: kinase PRKCI (Entrez PRKCI)
T3 construct: purchased Eurofin/DiscoverX
T3 sequence (P41743 whole entry): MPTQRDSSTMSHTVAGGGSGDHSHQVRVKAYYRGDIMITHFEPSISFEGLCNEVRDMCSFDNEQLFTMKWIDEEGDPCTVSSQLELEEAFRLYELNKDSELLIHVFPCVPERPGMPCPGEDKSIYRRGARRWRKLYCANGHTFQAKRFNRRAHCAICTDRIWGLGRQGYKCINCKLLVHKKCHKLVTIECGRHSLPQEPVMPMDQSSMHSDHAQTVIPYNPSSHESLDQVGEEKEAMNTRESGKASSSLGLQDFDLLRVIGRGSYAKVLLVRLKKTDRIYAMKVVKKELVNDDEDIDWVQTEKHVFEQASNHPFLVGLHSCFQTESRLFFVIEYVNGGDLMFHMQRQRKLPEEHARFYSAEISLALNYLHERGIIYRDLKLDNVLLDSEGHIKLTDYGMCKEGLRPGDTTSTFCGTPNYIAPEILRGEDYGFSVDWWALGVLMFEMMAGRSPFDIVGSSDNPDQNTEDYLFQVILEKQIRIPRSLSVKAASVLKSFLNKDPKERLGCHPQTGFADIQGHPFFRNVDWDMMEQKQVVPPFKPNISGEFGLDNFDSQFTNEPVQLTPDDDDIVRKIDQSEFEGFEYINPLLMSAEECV
Method in brief: as §1

[4] = biological target: T4, 384 kinases from the human genome (Homo sapiens, UniProt Q8IU85); conditions: kinase CAMK1D (Entrez CAMK1D)
T4 construct: purchased Eurofin/DiscoverX
Method in brief: as §1

[5] = biological target: T5, 384 kinases from the human genome (Homo sapiens, UniProt Q9UQ88); conditions: kinase CDC2L2 (Entrez CDC2L2)
T5 construct: purchased Eurofin/DiscoverX
Method in brief: as §1

[6] = biological target: T6, 384 kinases from the human genome (Homo sapiens, UniProt P23443); conditions: kinase S6K1 (Entrez RPS6KB1)
T6 construct: purchased Eurofin/DiscoverX
T6 sequence (P23443 whole entry): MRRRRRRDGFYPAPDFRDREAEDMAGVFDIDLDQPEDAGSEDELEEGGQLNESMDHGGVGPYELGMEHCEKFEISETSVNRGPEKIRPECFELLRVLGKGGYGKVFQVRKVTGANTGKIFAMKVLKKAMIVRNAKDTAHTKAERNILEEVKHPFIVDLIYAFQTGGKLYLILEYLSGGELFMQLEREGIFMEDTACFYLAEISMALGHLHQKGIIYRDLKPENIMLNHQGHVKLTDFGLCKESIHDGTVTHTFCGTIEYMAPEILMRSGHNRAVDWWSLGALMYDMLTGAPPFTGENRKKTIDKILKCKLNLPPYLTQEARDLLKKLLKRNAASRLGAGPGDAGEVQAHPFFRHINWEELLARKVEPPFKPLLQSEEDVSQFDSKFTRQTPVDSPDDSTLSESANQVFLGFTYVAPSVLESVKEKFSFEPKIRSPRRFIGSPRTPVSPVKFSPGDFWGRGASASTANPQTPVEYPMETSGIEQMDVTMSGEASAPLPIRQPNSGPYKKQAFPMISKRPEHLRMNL
Method in brief: as §1

[7] = biological target: T7, 384 kinases from the human genome (Homo sapiens, UniProt O60331); conditions: kinase PIP5K1C (Entrez PIP5K1C)
T7 construct: purchased Eurofin/DiscoverX
Method in brief: as §1

[8] = biological target: T8, 384 kinases from the human genome (Homo sapiens, UniProt Q8IVW4); conditions: kinase CDKL3 (Entrez CDKL3)
T8 construct: purchased Eurofin/DiscoverX
Method in brief: as §1

[9] = biological target: T9, 384 kinases from the human genome (Homo sapiens, UniProt P57058); conditions: kinase HUNK (Entrez HUNK)
T9 construct: purchased Eurofin/DiscoverX
T9 sequence (P57058 whole entry): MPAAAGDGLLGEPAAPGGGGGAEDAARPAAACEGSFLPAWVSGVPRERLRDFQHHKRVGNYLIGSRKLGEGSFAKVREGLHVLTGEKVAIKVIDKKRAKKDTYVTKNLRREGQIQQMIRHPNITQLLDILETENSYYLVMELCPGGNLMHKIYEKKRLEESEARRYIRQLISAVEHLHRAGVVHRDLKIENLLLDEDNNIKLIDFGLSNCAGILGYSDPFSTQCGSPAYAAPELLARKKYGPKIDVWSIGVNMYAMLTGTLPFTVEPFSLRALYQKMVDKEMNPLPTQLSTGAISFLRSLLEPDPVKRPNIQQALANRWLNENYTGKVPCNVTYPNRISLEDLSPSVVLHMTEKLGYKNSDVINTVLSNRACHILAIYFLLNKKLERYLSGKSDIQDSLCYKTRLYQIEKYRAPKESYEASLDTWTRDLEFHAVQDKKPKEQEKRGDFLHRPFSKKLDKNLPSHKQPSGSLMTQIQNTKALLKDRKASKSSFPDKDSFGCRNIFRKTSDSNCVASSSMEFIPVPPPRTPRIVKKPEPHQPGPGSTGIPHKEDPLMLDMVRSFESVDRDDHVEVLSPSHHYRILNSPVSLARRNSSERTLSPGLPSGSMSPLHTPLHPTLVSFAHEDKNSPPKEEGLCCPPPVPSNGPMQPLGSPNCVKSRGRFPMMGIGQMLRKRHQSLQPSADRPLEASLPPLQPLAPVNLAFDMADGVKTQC
Method in brief: as §1

[10] = biological target: T10, 384 kinases from the human genome (Homo sapiens, UniProt O14976); conditions: kinase GAK (Entrez GAK)
T10 construct: purchased Eurofin/DiscoverX
T10 sequence (O14976 whole entry): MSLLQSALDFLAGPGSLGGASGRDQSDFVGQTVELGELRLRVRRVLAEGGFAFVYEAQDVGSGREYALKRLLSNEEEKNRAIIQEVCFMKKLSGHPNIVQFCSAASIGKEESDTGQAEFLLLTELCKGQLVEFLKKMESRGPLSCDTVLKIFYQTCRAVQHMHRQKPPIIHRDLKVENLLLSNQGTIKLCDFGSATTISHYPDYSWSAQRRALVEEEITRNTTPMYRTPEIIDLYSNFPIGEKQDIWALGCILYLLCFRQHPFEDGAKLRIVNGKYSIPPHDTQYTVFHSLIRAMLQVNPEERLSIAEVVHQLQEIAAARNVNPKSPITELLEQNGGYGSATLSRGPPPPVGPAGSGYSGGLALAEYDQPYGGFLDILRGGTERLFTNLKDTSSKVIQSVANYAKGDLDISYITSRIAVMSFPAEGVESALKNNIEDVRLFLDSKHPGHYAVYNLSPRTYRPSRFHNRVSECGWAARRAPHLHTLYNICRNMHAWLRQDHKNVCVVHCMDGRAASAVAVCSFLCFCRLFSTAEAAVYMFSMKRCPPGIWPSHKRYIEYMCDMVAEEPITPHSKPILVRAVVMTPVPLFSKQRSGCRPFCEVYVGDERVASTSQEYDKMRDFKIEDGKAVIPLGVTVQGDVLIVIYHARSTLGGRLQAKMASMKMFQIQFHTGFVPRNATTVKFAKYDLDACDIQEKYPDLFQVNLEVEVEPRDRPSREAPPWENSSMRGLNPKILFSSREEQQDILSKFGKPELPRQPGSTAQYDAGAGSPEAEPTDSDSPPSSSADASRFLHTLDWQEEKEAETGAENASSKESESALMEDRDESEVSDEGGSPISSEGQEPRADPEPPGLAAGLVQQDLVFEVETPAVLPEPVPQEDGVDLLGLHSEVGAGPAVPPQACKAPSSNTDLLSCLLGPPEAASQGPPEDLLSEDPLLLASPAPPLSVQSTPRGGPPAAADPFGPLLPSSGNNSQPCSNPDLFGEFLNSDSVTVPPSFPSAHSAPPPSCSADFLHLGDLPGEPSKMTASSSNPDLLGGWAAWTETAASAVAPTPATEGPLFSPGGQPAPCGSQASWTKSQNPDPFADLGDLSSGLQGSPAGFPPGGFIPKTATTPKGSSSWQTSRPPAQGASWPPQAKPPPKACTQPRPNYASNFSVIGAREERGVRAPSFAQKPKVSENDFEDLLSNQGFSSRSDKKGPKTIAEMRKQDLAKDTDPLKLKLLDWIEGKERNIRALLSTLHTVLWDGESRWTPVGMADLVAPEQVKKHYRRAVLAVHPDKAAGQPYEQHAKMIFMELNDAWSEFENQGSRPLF
Method in brief: as §1

[11] = biological target: T11, 384 kinases from the human genome (Homo sapiens, UniProt Q02750); conditions: kinase MEK1 (Entrez MAP2K1)
T11 construct: purchased Eurofin/DiscoverX
Method in brief: as §1

[12] = biological target: T12, 384 kinases from the human genome (Homo sapiens, UniProt P35626); conditions: kinase GRK3 (Entrez ADRBK2)
T12 construct: purchased Eurofin/DiscoverX
T12 sequence (P35626 whole entry): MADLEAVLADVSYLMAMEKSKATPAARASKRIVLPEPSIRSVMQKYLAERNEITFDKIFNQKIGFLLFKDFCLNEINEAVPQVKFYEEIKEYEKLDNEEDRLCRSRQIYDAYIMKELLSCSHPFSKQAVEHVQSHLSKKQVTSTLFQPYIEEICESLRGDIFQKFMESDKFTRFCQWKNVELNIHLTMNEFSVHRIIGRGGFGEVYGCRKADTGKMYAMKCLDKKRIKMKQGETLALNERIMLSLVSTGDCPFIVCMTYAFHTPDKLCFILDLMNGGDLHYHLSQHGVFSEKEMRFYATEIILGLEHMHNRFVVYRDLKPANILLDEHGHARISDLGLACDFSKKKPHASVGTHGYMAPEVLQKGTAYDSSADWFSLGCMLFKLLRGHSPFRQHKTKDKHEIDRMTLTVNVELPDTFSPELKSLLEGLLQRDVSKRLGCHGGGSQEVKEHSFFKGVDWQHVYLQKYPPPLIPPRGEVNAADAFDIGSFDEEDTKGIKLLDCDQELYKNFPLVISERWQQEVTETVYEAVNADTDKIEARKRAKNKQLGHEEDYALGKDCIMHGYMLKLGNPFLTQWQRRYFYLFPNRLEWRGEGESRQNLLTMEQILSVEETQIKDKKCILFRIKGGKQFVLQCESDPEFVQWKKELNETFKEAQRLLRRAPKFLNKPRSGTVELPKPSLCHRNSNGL
Method in brief: as §1

[13] = biological target: T13, 384 kinases from the human genome (Homo sapiens, UniProt P36888)
T13 construct: purchased Eurofin/DiscoverX
T13 sequence (P36888 27-993): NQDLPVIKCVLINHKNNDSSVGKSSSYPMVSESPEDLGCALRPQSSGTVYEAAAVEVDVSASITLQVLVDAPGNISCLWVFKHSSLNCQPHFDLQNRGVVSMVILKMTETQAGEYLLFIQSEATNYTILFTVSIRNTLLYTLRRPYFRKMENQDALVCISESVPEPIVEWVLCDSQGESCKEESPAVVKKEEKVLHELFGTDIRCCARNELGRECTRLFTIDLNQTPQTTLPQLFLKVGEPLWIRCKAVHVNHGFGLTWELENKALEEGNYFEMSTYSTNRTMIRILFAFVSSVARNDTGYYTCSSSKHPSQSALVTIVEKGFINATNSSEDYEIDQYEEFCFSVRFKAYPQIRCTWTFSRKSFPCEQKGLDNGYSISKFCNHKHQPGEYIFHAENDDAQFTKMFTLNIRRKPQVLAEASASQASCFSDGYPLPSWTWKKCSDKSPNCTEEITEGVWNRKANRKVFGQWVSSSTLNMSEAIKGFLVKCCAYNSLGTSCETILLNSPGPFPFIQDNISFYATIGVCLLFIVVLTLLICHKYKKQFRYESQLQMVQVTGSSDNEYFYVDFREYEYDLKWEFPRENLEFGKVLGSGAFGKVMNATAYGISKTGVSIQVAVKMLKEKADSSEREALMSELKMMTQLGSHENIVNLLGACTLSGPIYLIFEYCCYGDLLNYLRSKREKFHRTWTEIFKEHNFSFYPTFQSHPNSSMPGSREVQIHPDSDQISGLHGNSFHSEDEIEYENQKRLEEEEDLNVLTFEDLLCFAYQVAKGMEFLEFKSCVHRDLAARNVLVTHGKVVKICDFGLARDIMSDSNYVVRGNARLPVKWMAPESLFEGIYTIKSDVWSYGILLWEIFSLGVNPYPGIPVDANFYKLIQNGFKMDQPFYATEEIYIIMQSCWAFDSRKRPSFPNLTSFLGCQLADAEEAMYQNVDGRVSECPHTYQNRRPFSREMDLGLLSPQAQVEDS
Method in brief: as §1

[14] = biological target: T14, 384 kinases from the human genome (Homo sapiens, UniProt O15146); conditions: kinase MUSK (Entrez MUSK)
T14 construct: purchased Eurofin/DiscoverX
Method in brief: as §1

[15] = biological target: T15, 384 kinases from the human genome (Homo sapiens, UniProt Q9BVS4); conditions: kinase RIOK2 (Entrez RIOK2)
T15 construct: purchased Eurofin/DiscoverX
Method in brief: as §1

[16] = biological target: T16, 384 kinases from the human genome (Homo sapiens, UniProt Q9UF33); conditions: kinase EPHA6 (Entrez EPHA6)
T16 construct: purchased Eurofin/DiscoverX
T16 sequence (Q9UF33 23-1036): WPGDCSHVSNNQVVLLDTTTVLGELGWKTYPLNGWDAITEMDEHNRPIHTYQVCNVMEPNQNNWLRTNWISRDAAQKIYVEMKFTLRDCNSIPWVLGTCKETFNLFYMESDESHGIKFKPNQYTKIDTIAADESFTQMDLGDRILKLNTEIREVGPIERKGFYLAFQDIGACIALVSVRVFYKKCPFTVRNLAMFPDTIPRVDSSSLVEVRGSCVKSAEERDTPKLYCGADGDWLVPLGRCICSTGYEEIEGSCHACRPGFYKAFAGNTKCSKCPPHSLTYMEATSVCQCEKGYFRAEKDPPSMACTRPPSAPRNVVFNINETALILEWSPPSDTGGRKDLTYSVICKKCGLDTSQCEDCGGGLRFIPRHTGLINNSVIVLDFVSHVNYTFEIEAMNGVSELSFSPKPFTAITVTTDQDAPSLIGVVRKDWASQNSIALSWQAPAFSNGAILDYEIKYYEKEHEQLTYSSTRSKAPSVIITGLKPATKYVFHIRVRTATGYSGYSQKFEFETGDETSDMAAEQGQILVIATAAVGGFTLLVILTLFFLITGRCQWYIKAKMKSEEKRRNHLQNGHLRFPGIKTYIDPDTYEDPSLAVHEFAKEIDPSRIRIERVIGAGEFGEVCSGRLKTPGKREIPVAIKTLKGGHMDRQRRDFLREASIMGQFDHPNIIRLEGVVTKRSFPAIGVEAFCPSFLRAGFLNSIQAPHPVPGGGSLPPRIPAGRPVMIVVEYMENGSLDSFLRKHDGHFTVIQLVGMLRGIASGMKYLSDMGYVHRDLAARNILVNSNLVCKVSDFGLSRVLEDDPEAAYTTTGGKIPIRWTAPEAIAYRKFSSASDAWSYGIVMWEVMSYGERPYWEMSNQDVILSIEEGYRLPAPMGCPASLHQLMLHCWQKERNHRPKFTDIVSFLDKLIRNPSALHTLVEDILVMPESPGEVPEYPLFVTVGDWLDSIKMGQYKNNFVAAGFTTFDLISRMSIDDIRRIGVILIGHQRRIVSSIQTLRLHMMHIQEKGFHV
Method in brief: as §1

CC(C)C(=O)N1CCN(c2ccc(NC(=O)c3cc4ccccc4o3)cc2Cl)CC1 [Compound 21]
Percent Control [1]: 94% | Percent Control [2]: 100% | Percent Control [3]: 100% | Percent Control [4]: 94% | Percent Control [5]: 95% | Percent Control [6]: 94% | Percent Control [7]: 100% | Percent Control [8]: 100% | Percent Control [9]: 69% | Percent Control [10]: 96% | Percent Control [11]: 76% | Percent Control [12]: 100% | FLT3 binding to its ligand affected ([13]; 10 µM of 21, compared to DMSO (100%)): more than 90% | Percent Control ([13]; kinase FLT3 (Entrez FLT3)): 6.6% | Percent Control ([13]; kinase FLT3-autoinhibited (Entrez FLT3)): 71% | Percent Control [14]: 96% | Percent Control [15]: 100% | Percent Control [16]: 75%
